Measured values published in ChEMBL document CHEMBL1201862, “PubChem BioAssay data set” (2004).
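Method: 48-hour compound exposure of cells in 96-well plates, five concentrations, linear interpolation of endpoints. GI50: concentration for 50% inhibition of growth.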 Calls of active or inactive are those of the source. Cut-off read from the data, not from the text of the source: active = GI50 up to about 1.1 µM and inactive = higher.

Tests used:
Experiment in all cases: growth of human tumour cells (NCI), 48 h
HCT-116 = test system: HCT-116
NCI-H226 = test system: NCI-H226
RXF 393 = test system: RXF 393
MOLT-4 = test system: MOLT-4
ACHN = test system: ACHN
EKVX = test system: EKVX
UO-31 = test system: UO-31
MCF7 = test system: MCF7
CCRF-CEM = test system: CCRF-CEM
MDA-MB-435 = test system: MDA-MB-435
BT-549 = test system: BT-549
SF-268 = test system: SF-268
A498 = test system: A498
HCC 2998 = test system: HCC 2998
COLO 205 = test system: COLO 205
DU-145 = test system: DU-145
SF-295 = test system: SF-295
NCI-H522 = test system: NCI-H522
HCT-15 = test system: HCT-15
TK-10 = test system: TK-10
NCI/ADR-RES = test system: NCI/ADR-RES
NCI-H23 = test system: NCI-H23
SK-MEL-2 = test system: SK-MEL-2
Malme-3M = test system: Malme-3M
786-0 = test system: 786-0
OVCAR-3 = test system: OVCAR-3
LOX IMVI = test system: LOX IMVI
OVCAR-8 = test system: OVCAR-8
HT-29 = test system: HT-29
MDA-MB-231 = test system: MDA-MB-231
UACC-257 = test system: UACC-257
SNB-75 = test system: SNB-75
HL-60 = test system: HL-60
MDA-N = test system: MDA-N
SN12C = test system: SN12C
HOP-62 = test system: HOP-62
SK-MEL-5 = test system: SK-MEL-5
OVCAR-4 = test system: OVCAR-4
Hs-578T = test system: Hs-578T
RPMI-8226 = test system: RPMI-8226
SF-539 = test system: SF-539
T47D = test system: T47D
SR = test system: SR
IGROV-1 = test system: IGROV-1
SK-MEL-28 = test system: SK-MEL-28
PC-3 = test system: PC-3
M14 = test system: M14
UACC-62 = test system: UACC-62
SNB-19 = test system: SNB-19
A549 = test system: A549
SK-OV-3 = test system: SK-OV-3
U-251 = test system: U-251
KM12 = test system: KM12
NCI-H460 = test system: NCI-H460
CAKI-1 = test system: CAKI-1
K562 = test system: K562
HOP-92 = test system: HOP-92
SW-620 = test system: SW-620
OVCAR-5 = test system: OVCAR-5

Measured: GI50

CC(=O)OCC(=O)O[C@@H]1[C@H]2[C@@H](OC(=O)c3ccccc3)[C@@H](C)C[C@]2(O)[C@H](OC(C)=O)[C@@]2(C)C(OC(C)=O)[C@]1(OC(C)=O)C[C@H]1C(=O)C(C)(C)C[C@@H]12 (stereo partly specified)
inactive: HCT-116 > 50 µM | NCI-H226 > 50 µM | RXF 393 > 50 µM | MOLT-4 > 19.6 µM | ACHN > 45.3 µM | EKVX > 42 µM | UO-31 > 50 µM | MCF7 > 50 µM | CCRF-CEM > 11.2 µM | MDA-MB-435 26.2 µM | BT-549 > 35 µM | SF-268 > 50 µM | A498 29.1 µM | HCC 2998 25.8 µM | COLO 205 12.8 µM | DU-145 > 50 µM | SF-295 22.4 µM | NCI-H522 > 50 µM | TK-10 > 50 µM | NCI/ADR-RES > 50 µM | NCI-H23 > 50 µM | SK-MEL-2 > 50 µM | Malme-3M 35.9 µM | 786-0 > 50 µM | OVCAR-3 > 46.6 µM | LOX IMVI > 50 µM | OVCAR-8 > 50 µM | HT-29 25.8 µM | MDA-MB-231 > 50 µM | UACC-257 > 50 µM | SNB-75 > 50 µM | HL-60 6.46 µM | MDA-N 18.1 µM | SN12C > 50 µM | HOP-62 > 22.6 µM | SK-MEL-5 31 µM | OVCAR-4 > 34.2 µM | Hs-578T > 26.9 µM | RPMI-8226 13.3 µM | SF-539 34.5 µM | T47D > 50 µM | SR > 50 µM | IGROV-1 > 50 µM | SK-MEL-28 > 50 µM | PC-3 > 47.9 µM | M14 > 50 µM | UACC-62 > 50 µM | SNB-19 > 50 µM | A549 9.98 µM | SK-OV-3 > 50 µM | U-251 > 50 µM | KM12 > 50 µM | NCI-H460 4.12 µM | CAKI-1 37.6 µM | K562 9.02 µM | HOP-92 > 31.7 µM | SW-620 > 50 µM | OVCAR-5 > 50 µM
> 47.1 µM: HCT-15

CC(C)(Cl)C(Br)CC/C(CBr)=C(/Cl)CCl.CC(C)(Cl)C(Br)CC/C(CBr)=C(\Cl)CCl (stereo unspecified)
2.29 µM: HCT-15
inactive: HCT-116 1.82 µM | RXF 393 2.14 µM | ACHN 5.64 µM | EKVX 6.17 µM | UO-31 1.95 µM | MCF7 2.13 µM | MDA-MB-435 1.79 µM | BT-549 2.01 µM | SF-268 2.25 µM | HCC 2998 2.86 µM | DU-145 > 10 µM | SF-295 > 10 µM | NCI-H522 1.45 µM | TK-10 4.18 µM | NCI/ADR-RES 2.21 µM | NCI-H23 2.43 µM | SK-MEL-2 2.23 µM | Malme-3M 1.9 µM | 786-0 1.66 µM | OVCAR-3 2.32 µM | LOX IMVI 1.61 µM | OVCAR-8 1.75 µM | HT-29 2.06 µM | MDA-MB-231 1.83 µM | UACC-257 2.13 µM | SNB-75 2.74 µM | MDA-N 1.8 µM | HOP-62 3.92 µM | SK-MEL-5 1.82 µM | OVCAR-4 2.74 µM | Hs-578T 3.22 µM | RPMI-8226 1.64 µM | SF-539 2.07 µM | T47D 2.32 µM | SK-MEL-28 2.11 µM | PC-3 2.33 µM | M14 1.49 µM | UACC-62 1.5 µM | SNB-19 6.15 µM | A549 > 10 µM | SK-OV-3 3.36 µM | U-251 1.73 µM | KM12 2.02 µM | NCI-H460 6.38 µM | CAKI-1 2.41 µM | HOP-92 1.9 µM | SW-620 2.64 µM | OVCAR-5 5.13 µM
active: NCI-H226 0.975 µM | MOLT-4 0.417 µM | CCRF-CEM 0.126 µM | A498 0.1 µM | COLO 205 0.607 µM | HL-60 0.94 µM | SN12C 0.497 µM | SR 0.331 µM | IGROV-1 0.782 µM | K562 1.01 µM

CCOC(=O)c1c(Nc2ccccc2)sc2cccnc12
21.7 µM: HCT-15
inactive: HCT-116 5.92 µM | NCI-H226 5.68 µM | RXF 393 25.7 µM | MOLT-4 15.6 µM | ACHN 14.2 µM | EKVX 18.5 µM | UO-31 1.94 µM | MCF7 7.76 µM | CCRF-CEM 10.5 µM | MDA-MB-435 22.6 µM | BT-549 18.7 µM | SF-268 29.9 µM | A498 3.56 µM | HCC 2998 3.24 µM | DU-145 28.7 µM | SF-295 21.4 µM | NCI-H522 21 µM | TK-10 11.2 µM | NCI/ADR-RES 21.9 µM | NCI-H23 30.3 µM | SK-MEL-2 17.7 µM | Malme-3M 30.3 µM | 786-0 11.6 µM | OVCAR-3 17.4 µM | LOX IMVI 18.2 µM | OVCAR-8 25.1 µM | HT-29 5.48 µM | MDA-MB-231 6.56 µM | UACC-257 5.35 µM | SNB-75 19.9 µM | HL-60 15.1 µM | MDA-N 6.73 µM | SN12C 9.18 µM | HOP-62 35.5 µM | SK-MEL-5 3.56 µM | OVCAR-4 23.3 µM | Hs-578T 35.3 µM | RPMI-8226 2.05 µM | SF-539 1.43 µM | T47D 28 µM | SR 9.44 µM | IGROV-1 23 µM | SK-MEL-28 20.8 µM | PC-3 11.1 µM | M14 4.49 µM | UACC-62 11.9 µM | SNB-19 7.66 µM | A549 3.24 µM | SK-OV-3 36 µM | U-251 2.43 µM | KM12 18.9 µM | NCI-H460 2.25 µM | CAKI-1 37.2 µM | K562 8.36 µM | HOP-92 1.9 µM | SW-620 24 µM | OVCAR-5 12.4 µM
active: COLO 205 0.853 µM

O=[N+]([O-])c1cc(CCl)ccc1CCl
active: RXF 393 0.585 µM | CCRF-CEM 0.504 µM | T47D 0.676 µM | SR 0.893 µM
1.84 µM: HCT-15
inactive: HCT-116 1.69 µM | NCI-H226 3.78 µM | MOLT-4 2.1 µM | ACHN 1.72 µM | EKVX 1.82 µM | UO-31 1.66 µM | MCF7 1.63 µM | MDA-MB-435 2.12 µM | BT-549 3.07 µM | SF-268 1.99 µM | A498 6.59 µM | HCC 2998 2.48 µM | COLO 205 1.71 µM | DU-145 1.63 µM | SF-295 6.82 µM | NCI-H522 1.73 µM | TK-10 2.96 µM | NCI/ADR-RES 2.7 µM | NCI-H23 2.16 µM | SK-MEL-2 2.72 µM | Malme-3M 1.74 µM | 786-0 1.67 µM | OVCAR-3 1.87 µM | LOX IMVI 1.85 µM | OVCAR-8 2.4 µM | HT-29 1.71 µM | MDA-MB-231 2.33 µM | UACC-257 3.07 µM | SNB-75 2.13 µM | HL-60 2.11 µM | MDA-N 1.87 µM | SN12C 1.53 µM | HOP-62 1.54 µM | SK-MEL-5 2.67 µM | OVCAR-4 1.76 µM | Hs-578T 2.72 µM | RPMI-8226 1.48 µM | SF-539 2.56 µM | IGROV-1 1.56 µM | SK-MEL-28 2.06 µM | PC-3 1.64 µM | M14 1.74 µM | UACC-62 4.41 µM | SNB-19 1.89 µM | A549 5.79 µM | SK-OV-3 13.3 µM | U-251 1.75 µM | KM12 1.66 µM | NCI-H460 3.44 µM | CAKI-1 1.35 µM | K562 2.24 µM | HOP-92 1.76 µM | SW-620 2.17 µM | OVCAR-5 2.62 µM
